PubChem BioAssay (NCI)
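Cells were grown in 96-well plates and exposed to each compound for 48 hours at five concentrations; endpoints were interpolated linearly between bracketing concentrations, or set to the highest concentration if not reached. GI50 is the concentration that inhibits growth by half. TGI is the concentration that stops growth completely.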 *1 amine or outer side, *2 acyl side, *3 side chain or, on linkers, in order; H or OH if unused. Where a SMILES comes first, the peptide text is derived from it. [ ]: non-standard residue; d: D form. The star is where a group is joined. X11 = C/C=C/CC(C)C(O)[C@H](N[*:1])C(=O)[*:2]; Decanoyl = CCCCCCCCCC(=O)*; Leu(ol) = CC(C)C[C@H](N)CO; Aib = CC(C)(N)C(=O)O

Tests used:
Test in all cases: growth of human tumour cells (NCI), 48 h
786-0 renal = system: 786-0 renal
A498 renal = system: A498 renal
A549 NSCLC = system: A549 NSCLC
ACHN renal = system: ACHN renal
BT-549 breast = system: BT-549 breast
CAKI-1 renal = system: CAKI-1 renal
CCRF-CEM leukemia = system: CCRF-CEM leukemia
COLO 205 colon = system: COLO 205 colon
DU-145 prostate = system: DU-145 prostate
EKVX NSCLC = system: EKVX NSCLC
HCC-2998 colon = system: HCC-2998 colon
HCT-116 colon = system: HCT-116 colon
HCT-15 colon = system: HCT-15 colon
HL-60(TB) leukemia = system: HL-60(TB) leukemia
HOP-62 NSCLC = system: HOP-62 NSCLC
HOP-92 NSCLC = system: HOP-92 NSCLC
HS 578T breast = system: HS 578T breast
HT29 colon = system: HT29 colon
IGROV1 ovarian = system: IGROV1 ovarian
K-562 leukemia = system: K-562 leukemia
KM12 colon = system: KM12 colon
LOX IMVI melanoma = system: LOX IMVI melanoma
M14 melanoma = system: M14 melanoma
MALME-3M melanoma = system: MALME-3M melanoma
MCF7 breast = system: MCF7 breast
MDA-MB-231 breast = system: MDA-MB-231 breast
MDA-MB-435 = system: MDA-MB-435
MOLT-4 leukemia = system: MOLT-4 leukemia
NCI-H226 lung = system: NCI-H226 lung
NCI-H23 lung = system: NCI-H23 lung
NCI-H460 lung = system: NCI-H460 lung
NCI-H522 lung = system: NCI-H522 lung
NCI/ADR-RES ovarian = system: NCI/ADR-RES ovarian
OVCAR-3 ovarian = system: OVCAR-3 ovarian
OVCAR-4 ovarian = system: OVCAR-4 ovarian
OVCAR-5 ovarian = system: OVCAR-5 ovarian
OVCAR-8 ovarian = system: OVCAR-8 ovarian
PC-3 prostate = system: PC-3 prostate
RPMI-8226 leukemia = system: RPMI-8226 leukemia
RXF 393 renal = system: RXF 393 renal
SF-268 CNS = system: SF-268 CNS
SF-295 CNS = system: SF-295 CNS
SF-539 CNS = system: SF-539 CNS
SK-MEL-2 melanoma = system: SK-MEL-2 melanoma
SK-MEL-28 melanoma = system: SK-MEL-28 melanoma
SK-MEL-5 melanoma = system: SK-MEL-5 melanoma
SK-OV-3 ovarian = system: SK-OV-3 ovarian
SN12C renal = system: SN12C renal
SNB-19 CNS = system: SNB-19 CNS
SNB-75 CNS = system: SNB-75 CNS
SR leukemia = system: SR leukemia
SW-620 colon = system: SW-620 colon
T-47D breast = system: T-47D breast
TK-10 renal = system: TK-10 renal
U251 CNS = system: U251 CNS
UACC-257 melanoma = system: UACC-257 melanoma
UACC-62 melanoma = system: UACC-62 melanoma
UO-31 renal = system: UO-31 renal

Compound: C/C=C/CC(C)C(O)[C@H](NC(=O)[C@@H]1CCCN1C(=O)C(C)(C)NC(=O)CCCCCCCCC)C(=O)NC(C)(C)C(=O)N[C@@H](CCC(N)=O)C(=O)N[C@H](CCC(N)=O)C(=O)NC(C)(C)C(=O)NC(C)(C)C(=O)N[C@@H](CCC(N)=O)C(=O)N[C@H](CC(C)C)C(=O)N[C@H](CO)CC(C)C (stereo partly drawn) (Decanoyl-[Aib]P[X11][Aib]Q[dQ][Aib][Aib]Q[dL][Leu(ol)])
- GI50 (786-0 renal): 1760 nM
- TGI (786-0 renal): 3.33 µM
- GI50 (A498 renal): 1990 nM
- TGI (A498 renal): 4.07 µM
- GI50 (A549 NSCLC): 2280 nM
- GI50 (ACHN renal): 2500 nM
- TGI (ACHN renal): 7.43 µM
- GI50 (BT-549 breast): 1840 nM
- TGI (BT-549 breast): 3.37 µM
- GI50 (CAKI-1 renal): 2210 nM
- TGI (CAKI-1 renal): 6.09 µM
- GI50 (CCRF-CEM leukemia): 1870 nM
- TGI (CCRF-CEM leukemia): 4 µM
- GI50 (COLO 205 colon): 1610 nM
- TGI (COLO 205 colon): 3.33 µM
- GI50 (DU-145 prostate): 1460 nM
- TGI (DU-145 prostate): 2850 nM
- GI50 (EKVX NSCLC): 1610 nM
- TGI (EKVX NSCLC): 3.71 µM
- GI50 (HCC-2998 colon): 2130 nM
- TGI (HCC-2998 colon): 5.25 µM
- GI50 (HCT-116 colon): 2210 nM
- TGI (HCT-116 colon): 5.16 µM
- GI50 (HCT-15 colon): 2440 nM
- TGI (HCT-15 colon): 7.08 µM
- GI50 (HL-60(TB) leukemia): 2200 nM
- TGI (HL-60(TB) leukemia): 5.22 µM
- GI50 (HOP-62 NSCLC): 1640 nM
- TGI (HOP-62 NSCLC): 3.68 µM
- GI50 (HOP-92 NSCLC): 1660 nM
- TGI (HOP-92 NSCLC): 3.97 µM
- GI50 (HS 578T breast): 1540 nM
- TGI (HS 578T breast): 3.28 µM
- GI50 (HT29 colon): 2570 nM
- GI50 (IGROV1 ovarian): 2300 nM
- TGI (IGROV1 ovarian): 7.23 µM
- GI50 (K-562 leukemia): 1660 nM
- TGI (K-562 leukemia): 4.85 µM
- GI50 (KM12 colon): 1840 nM
- TGI (KM12 colon): 3.68 µM
- GI50 (LOX IMVI melanoma): 1720 nM
- TGI (LOX IMVI melanoma): 3.45 µM
- GI50 (M14 melanoma): 1690 nM
- TGI (M14 melanoma): 3.35 µM
- GI50 (MALME-3M melanoma): 1400 nM
- TGI (MALME-3M melanoma): 2760 nM
- GI50 (MCF7 breast): 1630 nM
- TGI (MCF7 breast): 3.53 µM
- GI50 (MDA-MB-231 breast): 1630 nM
- TGI (MDA-MB-231 breast): 3.1 µM
- GI50 (MDA-MB-435): 1680 nM
- TGI (MDA-MB-435): 3.07 µM
- GI50 (MOLT-4 leukemia): 2100 nM
- TGI (MOLT-4 leukemia): 6.44 µM
- GI50 (NCI-H226 lung): 1640 nM
- TGI (NCI-H226 lung): 3.97 µM
- GI50 (NCI-H23 lung): 2090 nM
- TGI (NCI-H23 lung): 5.91 µM
- GI50 (NCI-H460 lung): 1530 nM
- TGI (NCI-H460 lung): 3.06 µM
- GI50 (NCI-H522 lung): 1670 nM
- TGI (NCI-H522 lung): 3.4 µM
- GI50 (NCI/ADR-RES ovarian): 2390 nM
- TGI (NCI/ADR-RES ovarian): 6.86 µM
- GI50 (OVCAR-3 ovarian): 1910 nM
- TGI (OVCAR-3 ovarian): 3.95 µM
- GI50 (OVCAR-4 ovarian): 2950 nM
- GI50 (OVCAR-5 ovarian): 1870 nM
- TGI (OVCAR-5 ovarian): 3.96 µM
- GI50 (OVCAR-8 ovarian): 1500 nM
- TGI (OVCAR-8 ovarian): 3.76 µM
- GI50 (PC-3 prostate): 1140 nM
- TGI (PC-3 prostate): 3.18 µM
- GI50 (RPMI-8226 leukemia): 1850 nM
- TGI (RPMI-8226 leukemia): 4.26 µM
- GI50 (RXF 393 renal): 2140 nM
- TGI (RXF 393 renal): 3.98 µM
- GI50 (SF-268 CNS): 1750 nM
- TGI (SF-268 CNS): 3.7 µM
- GI50 (SF-295 CNS): 1390 nM
- TGI (SF-295 CNS): 2900 nM
- GI50 (SF-539 CNS): 1620 nM
- TGI (SF-539 CNS): 3000 nM
- GI50 (SK-MEL-2 melanoma): 1860 nM
- TGI (SK-MEL-2 melanoma): 4.22 µM
- GI50 (SK-MEL-28 melanoma): 1690 nM
- TGI (SK-MEL-28 melanoma): 3.1 µM
- GI50 (SK-MEL-5 melanoma): 1720 nM
- TGI (SK-MEL-5 melanoma): 3.16 µM
- GI50 (SK-OV-3 ovarian): 3.11 µM
- TGI (SK-OV-3 ovarian): 13.3 µM
- GI50 (SN12C renal): 1930 nM
- TGI (SN12C renal): 5.35 µM
- GI50 (SNB-19 CNS): 1550 nM
- TGI (SNB-19 CNS): 3.07 µM
- GI50 (SNB-75 CNS): 1740 nM
- TGI (SNB-75 CNS): 3.22 µM
- GI50 (SR leukemia): 1950 nM
- TGI (SR leukemia): 8.47 µM
- GI50 (SW-620 colon): 2380 nM
- TGI (SW-620 colon): 7.11 µM
- GI50 (T-47D breast): 2090 nM
- TGI (T-47D breast): 5.67 µM
- GI50 (TK-10 renal): 2270 nM
- TGI (TK-10 renal): 5.57 µM
- GI50 (U251 CNS): 1460 nM
- TGI (U251 CNS): 2970 nM
- GI50 (UACC-257 melanoma): 1540 nM
- TGI (UACC-257 melanoma): 3.09 µM
- GI50 (UACC-62 melanoma): 1610 nM
- TGI (UACC-62 melanoma): 3.19 µM
- GI50 (UO-31 renal): 1590 nM
- TGI (UO-31 renal): 4.22 µM
